According to patent US20070243211A1, “Compositions for regulating metabolic disorders and methods of use thereof” (priority 2005, published 2007):

Test: Uptake of L-carnitine by patients from oral dosage forms, measured by serum plasma levels
Format: in vivo
Description: Softgel capsules provide improved delivery of the components of the composition of the present invention compared to alternative dosage forms. For example, the uptake of L-carnitine by patients from tablets (e.g., measured by serum plasma levels) is about 10-14%; the uptake of L-carnitine from standard hard capsules is about 15-20%; whereas the uptake of L-carnitine from softgel capsules is about 100%.

SMILES: C[N+](C)(C)C[C@H](O)CC(=O)[O-] [L-carnitine]
- uptake of L-carnitine (from softgel capsules): about 100%
- uptake of L-carnitine (from standard hard capsules): 15-20%
- uptake of L-carnitine (from tablets): 10-14%
